Read-outs that look alike come from different tables or passages of the source.
T1: FLhPIF1 (Homo sapiens, UniProt Q9H611)
T1 construct: Full length human PIF1 (FLhPIF1) was expressed and purified as a His-SUMO fusion; His-SUMO (cleaved yes); made in house; 'following similar protocols' to hPIF1HD (ArcticExpress BL21(DE3) E. coli)
T1 sequence (Q9H611 1-641): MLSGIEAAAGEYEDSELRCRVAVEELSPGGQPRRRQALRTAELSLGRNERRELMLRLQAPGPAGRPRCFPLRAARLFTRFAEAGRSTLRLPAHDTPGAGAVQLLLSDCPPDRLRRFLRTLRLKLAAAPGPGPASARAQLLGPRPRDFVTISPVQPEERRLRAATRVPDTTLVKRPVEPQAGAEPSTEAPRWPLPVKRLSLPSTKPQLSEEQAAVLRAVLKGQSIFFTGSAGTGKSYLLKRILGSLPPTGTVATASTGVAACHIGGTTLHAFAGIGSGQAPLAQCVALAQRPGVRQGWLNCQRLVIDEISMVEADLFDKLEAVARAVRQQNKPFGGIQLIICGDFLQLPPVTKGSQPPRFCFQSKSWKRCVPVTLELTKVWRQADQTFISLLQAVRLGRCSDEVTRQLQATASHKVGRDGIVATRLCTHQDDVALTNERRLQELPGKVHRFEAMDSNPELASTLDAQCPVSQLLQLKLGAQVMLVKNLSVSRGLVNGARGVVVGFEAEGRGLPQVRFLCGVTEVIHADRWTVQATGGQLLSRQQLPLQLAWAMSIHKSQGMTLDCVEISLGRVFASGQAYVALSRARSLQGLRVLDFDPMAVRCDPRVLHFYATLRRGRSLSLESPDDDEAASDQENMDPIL

T2: human UPF1 (hUPF1) helicase (Homo sapiens, UniProt Q92900)
T2 construct: Full-length human UPF1 helicase was expressed and purified as described previously; made in house
T2 sequence (Q92900 1-1129): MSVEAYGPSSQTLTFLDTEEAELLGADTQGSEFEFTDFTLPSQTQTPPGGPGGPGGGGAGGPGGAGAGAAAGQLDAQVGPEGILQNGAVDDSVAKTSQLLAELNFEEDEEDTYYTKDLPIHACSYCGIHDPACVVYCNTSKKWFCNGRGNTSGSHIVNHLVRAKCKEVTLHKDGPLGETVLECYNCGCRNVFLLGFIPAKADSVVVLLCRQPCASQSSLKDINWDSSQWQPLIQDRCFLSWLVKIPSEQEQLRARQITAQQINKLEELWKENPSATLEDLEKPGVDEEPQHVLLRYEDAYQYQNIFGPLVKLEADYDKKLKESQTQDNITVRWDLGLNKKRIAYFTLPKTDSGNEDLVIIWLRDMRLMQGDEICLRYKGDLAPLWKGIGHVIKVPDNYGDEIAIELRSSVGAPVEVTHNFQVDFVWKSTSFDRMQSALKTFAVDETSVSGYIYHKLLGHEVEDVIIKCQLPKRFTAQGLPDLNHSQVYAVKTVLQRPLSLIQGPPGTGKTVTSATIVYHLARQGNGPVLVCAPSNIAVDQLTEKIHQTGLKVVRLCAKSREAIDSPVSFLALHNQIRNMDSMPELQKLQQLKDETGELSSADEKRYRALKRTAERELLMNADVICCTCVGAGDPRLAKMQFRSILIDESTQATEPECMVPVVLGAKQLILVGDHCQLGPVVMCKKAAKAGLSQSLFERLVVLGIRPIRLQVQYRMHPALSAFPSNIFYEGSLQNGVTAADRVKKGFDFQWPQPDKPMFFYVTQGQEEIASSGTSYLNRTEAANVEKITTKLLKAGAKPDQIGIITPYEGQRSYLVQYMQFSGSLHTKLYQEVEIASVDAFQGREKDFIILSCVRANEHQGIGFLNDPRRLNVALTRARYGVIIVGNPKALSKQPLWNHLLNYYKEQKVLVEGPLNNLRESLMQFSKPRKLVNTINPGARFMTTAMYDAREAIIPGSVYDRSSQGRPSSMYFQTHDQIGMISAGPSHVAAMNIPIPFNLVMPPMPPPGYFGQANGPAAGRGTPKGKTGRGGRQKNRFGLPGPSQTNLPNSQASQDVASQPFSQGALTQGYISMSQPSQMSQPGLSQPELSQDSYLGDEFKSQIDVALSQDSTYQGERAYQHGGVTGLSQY

T3: hPIF1HD wild type (Homo sapiens, UniProt Q9H611 206-620)
T3 sequence: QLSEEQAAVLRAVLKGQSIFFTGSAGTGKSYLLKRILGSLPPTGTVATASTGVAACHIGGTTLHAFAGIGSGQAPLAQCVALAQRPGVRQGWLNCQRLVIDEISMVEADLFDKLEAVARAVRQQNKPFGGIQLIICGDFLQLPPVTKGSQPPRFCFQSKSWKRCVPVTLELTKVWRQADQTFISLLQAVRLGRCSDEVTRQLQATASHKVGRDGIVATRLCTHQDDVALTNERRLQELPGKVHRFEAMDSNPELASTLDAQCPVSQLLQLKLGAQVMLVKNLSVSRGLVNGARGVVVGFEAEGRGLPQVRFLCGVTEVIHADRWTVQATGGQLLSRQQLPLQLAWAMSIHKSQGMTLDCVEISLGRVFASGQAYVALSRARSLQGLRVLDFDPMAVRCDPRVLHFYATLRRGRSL


Columns and labels:
FLhPIF1 = molecular target: T1, FLhPIF1; assay: helicase assay after pre-incubation of SMI with FLhPIF1; assay type: biochemical; settings: for IC50: read-out: IC50 for dsDNA unwinding by FLhPIF1 following pre-incubation
Experimental: Helicase activity was assayed using a radiometric strand displacement assay employing a partially single- and double-stranded substrate generated by annealing two oligonucleotides: 5′-(T)55-[…] and 5′-[…], as described previously ([19],[28]). The reaction buffer was 20 mM HEPES–NaOH pH 7.5, 20 mM NaCl, 5.5 mM MgCl2, 5 mM ATP, 1 mM DTT and 0.1 mg/ml BSA. SMIs (100 mM stocks in DMSO) were assayed at up to 2 mM without pre-incubation with FLhPIF1, unless otherwise stated. Reactions (0.1 nM substrate) were incubated at 37°C for 20 min, followed by addition of 0.2 volumes of 120 mM EDTA, 0.6% (w/v) SDS, 60% (v/v) glycerol and 0.1% (w/v) bromophenol blue before resolution of products by polyacrylamide gel electrophoresis (8%, 19:1 acrylamide:bis-acrylamide), 1× TBE (90 mM Tris–borate/2 mM EDTA, pH 8.3 with 0.05% (w/v) SDS buffer). Dried gels were exposed to phosphorimaging plates (Fujifilm) for imaging and quantification (Fuji FLA3000, image gauge V3.3 software). IC50 values were analysed by non-linear regression (variable slope) using GraphPad Prism.
First, we screened inhibitory activity of the SMIs listed in Table 1, following incubation of 100 nM FLhPIF1 with 100 μM SMI for 1 h at 22°C in the absence of substrates (ATP and DNA), before a 1:10 dilution into helicase reactions. […] Next, compounds 2, 5, 6 and 11, along with 4 and 1D were selected for analysis in a pre-incubation time-course (100 nM FLhPIF1, 100 μM SMI), up to 3 h before assaying helicase activity.
(§1) In parallel, IC50 values for inhibition of human UPF1 (hUPF1) helicase activity by the SMIs were also determined under the same conditions. UPF1-like SF1B helicases are the most closely related family of helicases to PIF1, with significant structural and mechanistic similarity ([52]).
(§2) Figure 6. SMI IC50 for dsDNA unwinding determined following pre-incubation. SMIs (0.0078–2 mM SMI) were incubated for 2 h at 22°C (100 nM FLhPIF1 or hUPF1) before dilution (1:10) in the standard helicase assay (0.1 nM DNA substrate). For 1D and 6, structures, electrophoresis of FLhPIF1 reaction product and graphs for IC50 value determination are shown. The graphed data include the activity of SMIs towards hUPF1 and IC50 values obtained are given. See Supplementary Figure S14 for the complete data set. TEXT PRINTED IN THE PICTURE: 1D: IC50 (μM): PIF1: 978 ± 221; IC50 (μM): UPF1: N.D. | 6: IC50 (μM): PIF1: 79.4 ± 16; IC50 (μM): UPF1: 1750 ± 426

[1] = molecular target: T2, human UPF1 (hUPF1) helicase; assay: helicase assay after pre-incubation of SMI with hUPF1; assay type: biochemical; settings: 2 h pre-incubation
Experimental: Full-length human UPF1 helicase was expressed and purified as described previously ([36]).
as §1, §2
Supplementary Figure 14. IC50 DNA unwinding determined following 2 hours pre-incubation. […] The assay procedure and reaction conditions for each helicase were identical (see methods, main manuscript). The figure complements main manuscript Figure 6. […] The reason for this is unclear.

hPIF1HD wild type = molecular target: T3, hPIF1HD wild type; assay: EMSA; 5 mM AMP-PNP, 5.5 mM MgCl2; 2 nM protein, 0.25 nM DNA; no inhibitor; 20 mM HEPES-NaOH pH 7.5, 20 mM NaCl, 5.5 mM MgCl2, 5 mM AMP-PNP, 1 mM DTT, 0.1 mg/ml BSA; 0.25 nM DNA; binding temperature not stated explicitly (helicase assay conditions 37 C); 5% PAGE, 0.25x TBE; settings: protein: recombinant; tags: N-terminal His6 removed; GSRM cloning residues remain; label: 5'-32P; single strand

Row | IC50 (FLhPIF1; 2 h pre-incubation at 22°C with 100 nM FLhPIF1, then 1:10 dilution into helicase assay) | IC50 (FLhPIF1; 2 h pre-incubation at 22°C) | increase in inhibition of FLhPIF1 DNA unwinding after pre-incubation (FLhPIF1; 3 h pre-incubation, 100 nM FLhPIF1, 100 μM SMI) | inhibition of hUPF1 helicase [1] | Molecule | binding result (hPIF1HD wild type)
1 | 978 ± 221 µM | ~1000 µM | 5–10% | minimal inhibition | CC(=O)Nc1ccc(-c2csc(N)n2)cc1 [Compound 1D] | –
2 | – | – | – | – | oligo d(T)55 (ssDNA) DNA: TTTTTTTTTTTTTTTTTTTTTTTTTTTTTTTTTTTTTTTTTTTTTTTTTTTTTTT | binds

Reference: PMC11551755, “Structure-based discovery of first inhibitors targeting the helicase activity of human PIF1” (Nucleic Acids Research, 2024)
